The values below come from patent US11191798B2, “Extracts of Andrographis paniculata, methods for preparation and use thereof” (NUTRITION SCIENCE PARTNERS LIMITED, priority 2016, dated 2021).

Test [1] relates to FGF1. In words: FGF1 mRNA expression in human T84 cell line (Assay 6). It is filed as cell-based. As to conditions: about 24 hours. How it is done: Enhancement of FGF1 expression of Example 7 and the four ingredients AND, NAND, DAND, and DDAND was investigated in human T84 cell line.
The adherent epithelial cell line T84 was used in the assay. For sustaining cell culture, T84 cells were incubated with DMEM/F-12 (1:1) medium containing 5% FBS at 37° C. with 5% CO2. Sub-culture was performed when cells reached 90% confluence.
(§1) For the assay, the cells were trypsinized and suspended in culture medium. The cell density was determined and adjusted to 1×10^6 cells/mL. Then, the cells were seeded into a 96-well plate and incubated at 37° C. with 5% CO2 overnight.
The two Andrographis paniculata extracts, Standard 1 and Example 7, and AND, NAND, DAND, DDAND, and the mixture of them (named as the mixture of 4 markers, wherein the amounts of AND, NAND, DAND, and DDAND were 69%, 11%, 5%, and 15%, respectively, by weight relative to the weight of the mixture) were serially diluted in DMSO and further diluted in medium. Diluted solution was added into wells. The final concentrations for Standard 1 were: 300 and 100 μg/mL. The final concentration for Example 7 was: 100 μg/mL. The final concentration for NAND, DAND and DDAND was 10 μg/mL and AND was 40 μg/mL. The final concentrations for mixture of 4 markers were: 100 and 30 μg/mL. The plate was incubated at 37° C. with 5% CO2 for about 24 hours. The supernatants were removed and 150 μL RLT buffer was added into each well. The plate was stored at −80° C. until RNA extraction.
Total RNA was extracted using RNeasy 96 kit (QIAGEN) and cDNA was synthesized from RNA template using High Capacity cDNA RT kit (Applied Biosystems). Quantitative real-time PCR detection of gene expression was using SYBR Premix Ex Taq TM II (TakaRa). Expression of genes analyzed by q-PCR was normalized to GAPDH using the fold change (2^−ΔΔCT) method. The formula used in the calculation is shown as follows: Fold=2^−ΔΔCT=2^−[(CT^test sample^−CT^test sample_GAPDH^)−(CT^minimum^−CT^minimum_GAPDH^)] where CTtest sample is the CT value of target gene in cells treated with the test samples; CTtest sample-GAPDH is the CT value of GAPDH gene in cells treated with the test samples; CTminimum is the CT value of target gene in cells treated without test samples, and CTminimum-GAPDH is the CT value of GAPDH gene in cells treated without test samples.

For the next test, the system named is DNBS-induced rat colitis. In words: DNBS-induced rat colitis prophylactic model. It is filed as in vivo, Wistar rats.
For test [2], the system named is FGF1. In words: FGF1 mRNA expression in epithelial cell T84 (Assay 5). It is filed as cell-based, human. As to conditions: about 24 hours. On the procedure:
(§2) Enhancement of EGF and FGF expression were investigated in a human HT-29 and T84 cell lines.
(§3) Two adherent epithelial cell lines, HT29 and T84, were used in the assay. For sustaining cell culture, HT29 cells were incubated in cell culture dish with McCoy's 5a Medium containing 10% FBS, and T84 cells were incubated with DMEM/F-12 (1:1) medium containing 5% FBS. All cells were incubated at 37° C. with 5% CO2. Sub-culture was performed when cells reached 90% confluence.
as §1
(§4) The two Andrographis paniculata extracts, Standard 1 and Example 1, were serially diluted in DMSO and further diluted in medium. Diluted solution was added into wells. The final concentrations for Standard 1 were: 300, 100, 30 and 10 μg/mL. The final concentrations for Example 1 were: 100, 30, 10 and 1 μg/mL. […]
(§5) Total RNA was extracted using RNeasy 96 kit (QIAGEN) and cDNA was synthesized from RNA template using High Capacity cDNA RT kit (Applied Biosystems). Quantitative real-time PCR detection of gene expression was using SYBR Premix Ex Taq TM II (TakaRa). Expression of genes analyzed by q-PCR was normalized to GAPDH using the fold change (2^−ΔΔCT) method. […]

A further test has as its system FGF2. The test is described as follows: FGF2 mRNA expression in epithelial cell T84 (Assay 5). It is filed as cell-based, human. As to conditions: about 24 hours. On the procedure:
as §2, §3, §1, §4, §5

The subject of test [3] is EGF. In words: EGF mRNA expression in epithelial cell line T84. Format: cell-based, human. As to conditions: about 24 hours. On the procedure: as §2, §3, §1, §4, §5
The test system of test [4] is EGF. The test is described as follows: EGF mRNA expression in epithelial cell line HT29. It is filed as cell-based, human. The settings on record: about 24 hours. How it is done:
as §2, §3, §1, §4, §5

The mark [5] stands for this setting: Experiment 1, 300 mg/kg PO, mean±SD.

Each structure is given as a SMILES string.

Protocol for DNBS-induced rat colitis: Assay 7: The In Vivo Efficacy of Andrographis Extract in a DNBS-Induced Rat Colitis Prophylactic Model 1. Materials 1.1. Test Compounds and Formulation Methods • Test articles: Two Andrographis paniculata extracts, Example 10 used in Experiment 1 and Example 11 used in Experiment 2. • Control drugs: Standard 1; and Sulfasalazine (SASP), Sigma-Aldrich, Cat S0883.
Oral suspension of the test articles and Standard 1 were prepared as follows: the test articles and Standard 1 were respectively weighed and added into a 50 mL centrifuge tube. 0.5% sodium carboxymethylcellulose (0.5% CMC-Na) was added. Sonicate for 15 min to give suspensions with desired concentration. The fresh-made formulation was stored away from light, and homogenized thoroughly before use. The administration volume was 10 ml/kg.
Oral suspension of SASP was prepared as follows: SASP was weighed and added into a 50 mL centrifuge tube. 0.5% CMC-Na was added. Sonicate for 15 min to give 30 mg/mL suspension. The fresh-made formulation was stored away from light, and homogenized thoroughly before use. The administration volume was 10 ml/kg.
Male Wistar rats, 110-130 g, were purchased from Shanghai SLAC Laboratory Animal Co. Ltd.
Wistar rats were randomized assigned. The fasting rats were anesthetized with 25 mg/kg Zoletil and 0.5 mg/kg xylazine. And colitis was induced by intracolonic administration of 10 mg or 12 mg DNBS dissolved in 0.25 mL of 30% ethanol (v/v). The animals in naive control group were instilled with 30% ethanol only.
• Body weight: Body weights of animals were checked daily on and after grouping. • Diarrhea score: Stool consistency of the animals was monitored and scored daily from the 3rd day after the model induction. Evaluation criteria: 0=formed, 1=moist/sticky, 2=loose, 3=liquid. • Colon weight and length measurement: Rats were sacrificed 4 h post the last dosing on the 6th day. The abdomen was opened by a midline incision. Adhesion degree of colon and other organs was observed. The colon (from cecum end to the anus) was emptied of its content, rinsed with saline. The weight and length of the colon were measured, and then the colon ratio (colon weight/colon length) was calculated. • Histopathology analysis: Proximal colon with obvious ulcer was made into Swiss Rolls, fixed in 10% neutral formalin solution, dehydrated with xylene, embedded in paraffin, sectioned, and stained with hematoxylin and eosin (H&E). […] The severity of lesion was graded based on a semi-quantitative scale using the sum of scores of the following 10 evaluation indicators (see table 7).
All of the data were presented as mean±SD.
Body weight data were analyzed with repeated-measures ANOVA analysis by GraphPad Prism 6.0 software. Fisher's Least Significant Difference (LSD) test was used to perform significance analysis. p value was calculated. *p<0.05 refers to significant difference between vehicle control group and each of the treated groups. **p<0.01 refers to extremely significant difference between vehicle control group and each of the treated groups.
The colon ratio inhibition of each animal was calculated by the following formula, wherein CW refers to colon weight, CL refers to colon length:
The statistical analysis of the data of colon length and colon ratio was performed by Graphpad Prism 6.0 software. Unpaired t test or Mann-Whitney test were applied to analyze the significance analysis between test article treated groups and vehicle treated group, based on the normality of the data.

Turning to `C=C1CC[C@@H]2[C@](C)(CO)[C@H](O)CC[C@@]2(C)[C@@H]1CCC1=CCOC1=O` [DAND, 14-deoxyandrographolide], in the test on FGF1 [1] (T84, 10 μg/mL), the FGF1 up-regulation effect entry is “did not show similar FGF1 up-regulation effect”.

Take `C=C1CCC2C(C)(CO)C(O)CCC2(C)C1/C=C/C1=CCOC1=O` (stereo not shown) [DDAND, 14-Deoxy-11,12-dehydroandrographolide]: the FGF1 up-regulation effect result in the test with FGF1 [1] (T84, 10 μg/mL) is given as “did not show similar FGF1 up-regulation effect”.

Consider `O=C(O)c1cc(/N=N/c2ccc(S(=O)(=O)Nc3ccccn3)cc2)ccc1O` [SASP, Sulfasalazine], for which the colon histopathology findings entry with DNBS-induced rat colitis (300 mg/kg/day, 8 samples) was “five samples showed severe mucosal erosion and inflammatory cell infiltration”. Also, in the test with DNBS-induced rat colitis (Experiment 1, 300 mg/kg PO), the “Colon ratio inhibition, %” value is given as 44.5%. Besides, in the test on DNBS-induced rat colitis (setting [5]), the “Colon ration CW/CL (%)” value was determined as 0.0846 ± 0.0089 %; the “Crypt abscesses, histopathological score” value is 0.1 ± 0.4; the “Degree of cellular infiltrate, histopathological score” value is given as 2.1 ± 0.8; the “Degree of erosion/ulcer, histopathological score” value is recorded as 1.6 ± 1.4. Moreover, in the test with DNBS-induced rat colitis (setting [5]), the “Degree of mucosa edema, histopathological score” value was 1.6 ± 0.9; the “Epithelium hyperplasia, histopathological score” value worked out at 0.8 ± 0.5; the “Goblet cell depletion, histopathological score” value is reported as 0.9 ± 0.4; the “Muscle thickening, histopathological score” value was 1.4 ± 0.9. In the test with DNBS-induced rat colitis (setting [5]), the “Severe destruction for erosion (%), histopathological score” value came to 0.8 ± 0.7; the “Severely affected in infiltration (%), histopathological score” value is reported as 1.6 ± 0.7; the “The sum of score (colon histopathology)” value came out at 12.5 ± 6.3; the “Total area affected (%), histopathological score” value was 1.6 ± 0.7.

With `C=C1CC[C@@H]2[C@](C)(CO)[C@H](O)CC[C@@]2(C)[C@@H]1C/C=C1/C(=O)OC[C@H]1O` [AND, Andrographolide], the “mRNA expression of FGF1 in T84 cells” value in the test on FGF1 [2] is recorded as “had no similar effect”. The “mRNA expression of FGF2 in T84 cells” value with FGF2 is recorded as “had no similar effect”. Further, the “mRNA expression of EGF in T84 cells” value in the test with EGF [3] is “increased”. Besides, the FGF1 up-regulation effect entry in the test on FGF1 [1] (T84, 40 μg/mL) is listed as “did not show similar FGF1 up-regulation effect”. In the test on EGF [4], the “mRNA expression of EGF in HT29 cells” value was “increased”.

As to `C=C1CC[C@@H]2[C@](C)(CO[C@@H]3O[C@H](CO)[C@@H](O)[C@H](O)[C@H]3O)CCC[C@@]2(C)[C@@H]1CCC1=CCOC1=O` [NAND, Neoandrographolide], the FGF1 up-regulation effect entry in the test on FGF1 [1] (T84, 10 μg/mL) is recorded as “did not show similar FGF1 up-regulation effect”.
